# Biological target: T1, INaL v1.6 (late sodium current, HEK-293 cells expressing recombinant sodium channels) (Homo sapiens, UniProt Q9UQD0)
# T1 construct: expressed in transfected cells; host or cells: HEK-293
# Experiment: Inhibition of ATX-II evoked Nav late current (INaL), PatchXpress electrophysiology
# Format: cell-based
# Conditions: HEK293, compound at 1 μM, late current evoked by ATX-II 300 nM
# Procedure: Functional characterization of exemplary compounds to modulate voltage gated sodium currents was accomplished using the PatchXpress™ high throughput electrophysiology platforms (Molecular Devices, Sunnyvale, CA). HEK-293 cells expressing recombinant sodium channels were grown in DMEM/high-glucose Dulbecco's modified, 10% FBS, 2 mM sodium pyruvate, and G418. Nav channel expressing cells were grown to 50%-80% confluency and harvested by trypsinization. Trypsinized cells were washed and resuspended in extracellular buffer at a concentration of 1×10^6 cells/ml. The onboard liquid handling facility of the PatchXpress was used for dispensing cells and application of test compounds. Nav late currents were evoked by the application of ATX-II, 300 nM. Currents were evoked by depolarizing pulses to 0 mV for 200 ms from a non-inactivating holding potential (e.g., −120 mV to −150 mV) at a frequency of 0.1 Hz. Late current amplitude and stability were determined by analyzing the mean current amplitude over the 175-195 msec region of the 200 msec test pulse. Following steady state block with exemplary compounds (e.g., as described herein) at 1 μM, a Na^+ free solution containing an impermeant cation (e.g., Choline or NDMG) was added for determination of the 0 current level. Late current amplitudes for each test condition were determined from the mean of the 175-195 msec region of the 200 msec test pulse. Percent inhibition of steady state currents was calculated as (compound−baseline)/(control−baseline)*100, where control represents INaL recorded in the absence of compound.
# T1 sequence (Q9UQD0 whole entry): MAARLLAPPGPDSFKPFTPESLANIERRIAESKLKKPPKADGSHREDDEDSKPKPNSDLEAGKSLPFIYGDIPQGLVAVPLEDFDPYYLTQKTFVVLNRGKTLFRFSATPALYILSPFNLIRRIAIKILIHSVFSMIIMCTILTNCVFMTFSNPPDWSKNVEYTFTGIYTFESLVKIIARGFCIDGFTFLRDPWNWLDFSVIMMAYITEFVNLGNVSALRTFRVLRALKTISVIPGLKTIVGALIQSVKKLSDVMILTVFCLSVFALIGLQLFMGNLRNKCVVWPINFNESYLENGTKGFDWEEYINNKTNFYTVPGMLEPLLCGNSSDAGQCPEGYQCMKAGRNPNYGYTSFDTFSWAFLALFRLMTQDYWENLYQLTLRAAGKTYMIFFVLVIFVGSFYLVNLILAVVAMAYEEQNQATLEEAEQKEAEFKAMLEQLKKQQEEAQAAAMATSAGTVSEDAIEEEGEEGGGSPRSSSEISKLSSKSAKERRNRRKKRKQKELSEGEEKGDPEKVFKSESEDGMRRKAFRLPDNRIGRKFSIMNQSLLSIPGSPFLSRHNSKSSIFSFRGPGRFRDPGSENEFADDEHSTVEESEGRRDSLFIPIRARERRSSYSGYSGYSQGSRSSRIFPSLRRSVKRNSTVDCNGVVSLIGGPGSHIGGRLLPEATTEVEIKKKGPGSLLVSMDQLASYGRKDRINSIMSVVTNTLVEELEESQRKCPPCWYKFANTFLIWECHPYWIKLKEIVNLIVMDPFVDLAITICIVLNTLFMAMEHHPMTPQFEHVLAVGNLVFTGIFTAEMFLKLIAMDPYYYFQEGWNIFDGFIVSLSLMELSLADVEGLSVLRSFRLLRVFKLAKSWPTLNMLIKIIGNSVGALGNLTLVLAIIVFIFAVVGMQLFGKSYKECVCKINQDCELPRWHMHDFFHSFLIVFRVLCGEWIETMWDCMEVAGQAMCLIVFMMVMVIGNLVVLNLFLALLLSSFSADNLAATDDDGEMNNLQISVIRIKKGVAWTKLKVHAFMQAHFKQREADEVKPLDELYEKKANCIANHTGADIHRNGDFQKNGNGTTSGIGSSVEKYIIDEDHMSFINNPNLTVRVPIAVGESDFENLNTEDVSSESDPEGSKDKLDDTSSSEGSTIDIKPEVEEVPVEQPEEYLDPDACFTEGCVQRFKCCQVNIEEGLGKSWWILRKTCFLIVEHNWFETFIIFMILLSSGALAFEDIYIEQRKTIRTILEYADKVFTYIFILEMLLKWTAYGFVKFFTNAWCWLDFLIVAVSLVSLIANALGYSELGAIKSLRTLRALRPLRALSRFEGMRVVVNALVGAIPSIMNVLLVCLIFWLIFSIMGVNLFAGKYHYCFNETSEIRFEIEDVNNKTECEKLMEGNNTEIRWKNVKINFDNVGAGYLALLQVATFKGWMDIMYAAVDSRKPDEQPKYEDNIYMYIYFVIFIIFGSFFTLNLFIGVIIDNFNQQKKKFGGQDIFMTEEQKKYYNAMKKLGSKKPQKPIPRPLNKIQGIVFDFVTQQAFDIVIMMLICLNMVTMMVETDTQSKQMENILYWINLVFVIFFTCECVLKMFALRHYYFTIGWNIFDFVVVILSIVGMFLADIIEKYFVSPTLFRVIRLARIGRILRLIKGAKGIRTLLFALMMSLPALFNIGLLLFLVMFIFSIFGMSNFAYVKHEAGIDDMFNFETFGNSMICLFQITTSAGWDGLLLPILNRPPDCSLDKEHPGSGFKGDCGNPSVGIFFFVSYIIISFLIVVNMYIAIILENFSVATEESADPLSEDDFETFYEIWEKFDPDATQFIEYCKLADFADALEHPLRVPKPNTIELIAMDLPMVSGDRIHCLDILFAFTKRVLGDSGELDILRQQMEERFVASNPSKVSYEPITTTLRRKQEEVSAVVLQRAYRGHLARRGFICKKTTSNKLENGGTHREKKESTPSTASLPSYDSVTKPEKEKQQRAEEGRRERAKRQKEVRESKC
row,inhibition at 1 µM [%],Compound
1,50 to 75,"Fc1cc(-c2cn3c(C(F)(F)F)nnc3cn2)cnc1OCC1CC1(F)F (single isomer, unassigned) [28 (Isomer 1)]"
2,50 to 75,"Fc1cc(-c2ccc3nnc(C(F)(F)F)n3n2)cnc1OC1(C(F)(F)F)COC1 [Compound 4, 6-[5-fluoro-6-[3-(trifluoromethyl)oxetan-3-yl]oxy-3-pyridyl]-3-(trifluoromethyl)-[1,2,4]triazolo[4,3-b]pyridazine]"
3,50 to 75,"Cc1cc2nnc(C(F)(F)F)n2nc1-c1ccc(OC(C)(C)C(F)(F)F)nc1 [Compound 51, 7-methyl-6-[6-(2,2,2-trifluoro-1,1-dimethyl-ethoxy)-3-pyridyl]-3-(trifluoromethyl)-[1,2,4]triazolo[4,3-b]pyridazine]"
4,> 75,"C[C@@H](Oc1ncc(-c2ccc3nnc(C(F)F)n3n2)cc1F)C(F)(F)F [Compound 17, 3-(difluoromethyl)-6-[5-fluoro-6-[(1R)-2,2,2-trifluoro-1-methyl-ethoxy]-3-pyridyl]-[1,2,4]triazolo[4,3-b]pyridazine]"
5,> 75,"Cc1cc2nnc(C(F)(F)F)n2nc1-c1cnc(OC(C)(C)C(F)(F)F)c(F)c1 [Compound 40, 6-[5-fluoro-6-(2,2,2-trifluoro-1,1-dimethyl-ethoxy)-3-pyridyl]-7-methyl-3-(trifluoromethyl)-[1,2,4]triazolo[4,3-b]pyridazine]"
6,50 to 75,"Cc1c(-c2cnc(O[C@@H](C)C(F)(F)F)c(F)c2)ncc2nnc(C(F)(F)F)n12 [Compound 38, 6-[5-fluoro-6-[(1S)-2,2,2-trifluoro-1-methyl-ethoxy]-3-pyridyl]-5-methyl-3-(trifluoromethyl)-[1,2,4]triazolo[4,3-a]pyrazine]"
7,< 50,"CC(C)(Oc1ncc(-c2cn3c(C4CC4(F)F)nnc3cn2)cc1F)C(F)(F)F (single isomer, unassigned) [13 (Isomer 1)]"
8,> 75,"CC(C)(Oc1ncc(-c2ccc3nnc(C4CC4(F)F)n3n2)cc1F)C(F)(F)F (single isomer, unassigned) [11 (Isomer 1)]"
9,50 to 75,Fc1cc(-c2cn3c(C(F)(F)F)nnc3cn2)cnc1OCC1CC1(F)F (centres unmarked) [Compound 29]
10,< 50,"C[C@@H](Oc1ncc(-c2cn3c(C4CC4(F)F)nnc3cn2)cc1F)C(F)(F)F (single isomer, unassigned) [16 (Isomer 1)]"
11,50 to 75,"CC(C)(Oc1ncc(-c2cn3c(C4CC(F)(F)C4)nnc3cn2)cc1F)C(F)(F)F [Compound 8, 3-(3,3-difluorocyclobutyl)-6-[5-fluoro-6-(2,2,2-trifluoro-1,1-dimethyl-ethoxy)-3-pyridyl]-[1,2,4]triazolo[4,3-a]pyrazine]"
12,> 75,"C[C@H](Oc1ccc(-c2nn3c(C(F)(F)F)nnc3cc2Cl)cn1)C(F)(F)F [Compound 46, (S)-7-chloro-3-(trifluoromethyl)-6-(6-((1,1,1-trifluoropropan-2-yl)oxy)pyridin-3-yl)-[1,2,4]triazolo[4,3-b]pyridazine]"
13,< 50,"C[C@@H](Oc1ncc(-c2cn3c(C4CC(F)(F)C4)nnc3cn2)cc1F)C(F)(F)F [Compound 20, 3-(3,3-difluorocyclobutyl)-6-[5-fluoro-6-[(1R)-2,2,2-trifluoro-1-methyl-ethoxy]-3-pyridyl]-[1,2,4]triazolo[4,3-a]pyrazine]"
14,< 50,"Fc1cc(-c2ccc3nnc(C(F)F)n3n2)cnc1OCC1CC1(F)F (centres unmarked) [Compound 22, 6-[6-[(2,2-difluorocyclopropyl)methoxy]-5-fluoro-3-pyridyl]-3-(difluoromethyl)-[1,2,4]triazolo[4,3-b]pyridazine]"
15,50 to 75,"Cc1cc2nnc(C(F)(F)F)n2nc1-c1ccc(O[C@H](C)C(F)(F)F)nc1 [Compound 49, (R)-7-methyl-3-(trifluoromethyl)-6-(6-((1,1,1-trifluoropropan-2-yl)oxy)pyridin-3-yl)-[1,2,4]triazolo[4,3-b]pyridazine]"
16,> 75,"CC(C)(Oc1ccc(-c2nn3c(C(F)(F)F)nnc3cc2Cl)cn1)C(F)(F)F [Compound 50, 7-chloro-6-[6-(2,2,2-trifluoro-1,1-dimethyl-ethoxy)-3-pyridyl]-3-(trifluoromethyl)-[1,2,4]triazolo[4,3-b]pyridazine]"
17,> 75,"Fc1cc(-c2ccc3nnc(C(F)(F)F)n3n2)cnc1OC1CC(F)(F)C1(F)F (single isomer, unassigned) [25 (Isomer 1)]"
18,> 75,"CC(C)(Oc1ncc(-c2ccc3nnc(C4CC4(F)F)n3n2)cc1F)C(F)(F)F (centres unmarked) [Compound 12, 3-(2,2-difluorocyclopropyl)-6-[5-fluoro-6-(2,2,2-trifluoro-1,1-dimethyl-ethoxy)-3-pyridyl]-[1,2,4]triazolo[4,3-b]pyridazine]"
19,< 50,"Fc1cc(-c2cn3c(C(F)(F)F)nnc3cn2)cnc1OC1(C(F)(F)F)COC1 [Compound 2, 6-[5-fluoro-6-[3-(trifluoromethyl)oxetan-3-yl]oxy-3-pyridyl]-3-(trifluoromethyl)-[1,2,4]triazolo[4,3-a]pyrazine]"
20,50 to 75,"C[C@H](Oc1ncc(-c2nn3c(C(F)(F)F)nnc3cc2Cl)cc1F)C(F)(F)F [Compound 43, 7-chloro-6-[5-fluoro-6-[(1S)-2,2,2-trifluoro-1-methyl-ethoxy]-3-pyridyl]-3-(trifluoromethyl)-[1,2,4]triazolo[4,3-b]pyridazine]"
21,50 to 75,"Cc1cc2nnc(C(F)(F)F)n2nc1-c1cnc(O[C@H](C)C(F)(F)F)c(F)c1 [Compound 45, (R)-6-(5-fluoro-6-((1,1,1-trifluoropropan-2-yl)oxy)pyridin-3-yl)-7-methyl-3-(trifluoromethyl)-[1,2,4]triazolo[4,3-b]pyridazine]"

row,Compound,inhibition at 1 µM [%]
1,"Fc1cc(-c2ccc3nnc(C(F)(F)F)n3n2)cnc1OC1CC(F)(F)C1(F)F (centres unmarked) [Compound 26, 6-[5-fluoro-6-(2,2,3,3-tetrafluorocyclobutoxy)-3-pyridyl]-3-(trifluoromethyl)-[1,2,4]triazolo[4,3-b]pyridazine]",> 75
2,"Fc1cc(-c2cn3c(C(F)F)nnc3cn2)cnc1OC1(C(F)(F)F)CCC1 [Compound 9, 3-(difluoromethyl)-6-[5-fluoro-6-[1-(trifluoromethyl)cyclobutoxy]-3-pyridyl]-[1,2,4]triazolo[4,3-a]pyrazine]",> 75
